Results as given in patent publication US20230165278A1, “NUTRITIONAL SUPPLEMENTS COMPRISING DIETARY METAL COMPLEXES IN A MATRIX OF CELLULOSIC MATERIALS” (North Carolina State University, priority 2020, published 2023).

Key:
[1] = cited from earlier work; for Solubility (in words): background statement
[2] = Swine trial (16 barrows, 14 days): zinc in ileal, cecal and fecal samples and zinc digestibility; assay type: in vivo; details: pigs
From the text: A representative animal trial used a group of 16 barrows (castrated male pigs) including of 8 pairs of littermates. […] The littermate pairs were divided in half and randomly assigned to either the control diet or the test diet containing a composition of the presently disclosed subject matter. Each diet was formulated using a basal diet primarily of corn and soybean meal containing 50 ppm Zn from an added vitamin premix. The control diet contained an additional 50 ppm Zn from Basic Zinc Chloride (Zn5Cl2(OH)8.H2O) and the test diet contained an additional 50 ppm Zn from a composition of the presently disclosed subject matter for a total of 100 ppm Zn for each diet to meet the National Research Council recommendation for zinc supplementation of pigs of this size. The composition of the presently disclosed subject matter was prepared as described herein above.
Pigs were fed twice daily at 0800 and 1700 for the entirety of the trial. Daily feed intake for maintenance was determined for each pig at 4% of initial body weight at the beginning of the trial. Each pig was housed in a separate metabolism crate allowing for the quantitative collection of feces and urine. The trial lasted for a total of 14 days; the first 10 days allowed for the pigs to adjust to their new environments and diets. Days 11-13 for were used for twice-daily feces and urine collection. On day 14 all pigs were weighed and humanely euthanized prior to dissections to obtain ileal and cecal content samples. Feces samples and urine samples were pooled daily and stored at −20 C until ready for analysis. Fecal, ileal, and cecal samples were dried at 64 C in a drying oven until no change in mass was observed which took between 48-96 hours for most samples. After being dried completely, samples were sent to Missouri Field Laboratories for analysis of Zn, Titanium dioxide which was used as a feed marker, and proximate nutrient analysis. Pigs gained an average of 7.34 kilograms per pig during the 14 day trial.
The control diet, containing all supplemental zinc from basic zinc chloride, contained 134 ppm zinc. […] This may be indicative of the composition of the presently disclosed subject matter having higher levels of zinc than used in formulation of the diets.
Using the concentration of zinc found in the feed and ileal, cecal and fecal samples, zinc digestibility by the following equation: 100−[100*(zinc in feed/zinc in feces)]. Since the amounts of zinc present in the diets were over the zinc requirement of pigs of this size and age, the extra zinc in the diets employing a composition of the presently disclosed subject matter (referred to as “Experimental” in Table 2) may have affected the zinc digestibility results.

Solubility in water = assay type: physicochemical; details: description of the patent's own materials
[3] = 100-[100*(zinc in feed/zinc in sample)]

## [O]=[Zn] [Zinc oxide]
[1]
  Solubility (in words): relatively insoluble except in acid

## [Cl-].[Cl-].[Zn+2] [ZnCl2]
[1]; in 1 L of water
  Solubility (amount that dissolves in 1 L of water): 4 kg

## Zn5Cl2(OH)8.H2O [Control]
[2]
  Percent more zinc in ileal contents than in cecal contents: 2.2%
[2]; dried cecal contents, day 14, diet zinc found 134 ppm (control) / 152 ppm (experimental)
  Concentration of Zinc found in contents of the cecum: 399 ppm
[2]; dried feces collected days 11-13, diet zinc found 134 ppm (control) / 152 ppm (experimental)
  Concentration of Zinc found in feces: 678 ppm
[2]; dried ileal contents, day 14, diet zinc found 134 ppm (control) / 152 ppm (experimental)
  Concentration of Zinc found in contents of the ileum: 408 ppm
[2]; 100-[100*(zinc in feed/zinc in feces)]
  Percent Digestibility of Zinc in Feed, Fecal: 80.2%
[2]; [3]
  Percent Digestibility of Zinc in Feed, Cecal: 66.1%
  Percent Digestibility of Zinc in Feed, Ileal: 62.6%
[2]; fecal zinc vs total of ileal, cecal and fecal zinc
  Share of total zinc excreted in feces: 45.7%
[2]; ileal+cecal zinc vs total of ileal, cecal and fecal zinc
  Share of total zinc retained in ilium+cecum: 54.3%
Solubility in water
  Solubility in water / aqueous solution (in words): highly insoluble in water

## O=C([O-])[C@H](O)[C@@H](O)[C@H](O)[C@H](O)CO.O=C([O-])[C@H](O)[C@@H](O)[C@H](O)[C@H](O)CO.[Zn+2] [zinc gluconate, Zn(O2C(CHOH)4CH2OH)2]
[1]
  Solubility (in words): highly soluble
